How the values were obtained:
[1] = target: human PDE4D7 (mutation of serine 54 to aspartic acid) (Homo sapiens, UniProt Q08499, S190D); assay: Kinetic assay of PDE4 activity (cAMP hydrolysis, coupled-enzyme fluorescence); type: biochemical; conditions: inhibition of cAMP hydrolysis by human PDE4D; each concentration tested in duplicate; FIG. 1; read-out: One-half maximal inhibition of PDE4D (IC50)
Description: PDE4D inhibition is measured by the method of Burgin et al, (2010) Design of Phosphodiesterase Type 4D (PDE4D) Allosteric Modulators for Cognition with Improved Safety. Nature Biotechnology 28:63-70. Each concentration of Example 1 was tested in duplicate (round symbols).
PDE4 activity may be measured by any method known in the art. Here, a kinetic assay of cAMP hydrolysis by purified PDE4 was used, in which PDE4 activity was measured by coupling the formation of the PDE4 reaction product, 5′-adenosine monophosphate, to the oxidation of reduced nicotinamide adenine dinucleotide (NADH) by the use of three coupling enzymes (myokinase, pyruvate kinase and lactate dehydrogenase), which allows fluorescent determination of reaction rates. Assays are performed in 96-well plates in a total volume of 200 μl/well. Compounds are dissolved in dimethylsulfoxide (DMSO) and added to plates in a volume of 10 μl followed by addition of 165 μl of assay mix. Plates are pre-incubated at 25° C. for 15 min and the reactions are initiated by the addition of 25 μl of cAMP followed by thorough mixing. Reaction rates are measured by monitoring the decrease in fluorescence using excitation at 355 nm and emission at 460 nm for a period of 10 min in a fluorescence plate reader. Initial rates (slopes) are determined from linear portions of the progress curves. […]

recombinant human PDE4 = conditions: read-out: reported IC50 with respect to inhibiting recombinant human PDE4; cited from earlier work

Chain of human PDE4D7 (mutation of serine 54 to aspartic acid) (Q08499 1-748 isoform Q08499-11 S129D): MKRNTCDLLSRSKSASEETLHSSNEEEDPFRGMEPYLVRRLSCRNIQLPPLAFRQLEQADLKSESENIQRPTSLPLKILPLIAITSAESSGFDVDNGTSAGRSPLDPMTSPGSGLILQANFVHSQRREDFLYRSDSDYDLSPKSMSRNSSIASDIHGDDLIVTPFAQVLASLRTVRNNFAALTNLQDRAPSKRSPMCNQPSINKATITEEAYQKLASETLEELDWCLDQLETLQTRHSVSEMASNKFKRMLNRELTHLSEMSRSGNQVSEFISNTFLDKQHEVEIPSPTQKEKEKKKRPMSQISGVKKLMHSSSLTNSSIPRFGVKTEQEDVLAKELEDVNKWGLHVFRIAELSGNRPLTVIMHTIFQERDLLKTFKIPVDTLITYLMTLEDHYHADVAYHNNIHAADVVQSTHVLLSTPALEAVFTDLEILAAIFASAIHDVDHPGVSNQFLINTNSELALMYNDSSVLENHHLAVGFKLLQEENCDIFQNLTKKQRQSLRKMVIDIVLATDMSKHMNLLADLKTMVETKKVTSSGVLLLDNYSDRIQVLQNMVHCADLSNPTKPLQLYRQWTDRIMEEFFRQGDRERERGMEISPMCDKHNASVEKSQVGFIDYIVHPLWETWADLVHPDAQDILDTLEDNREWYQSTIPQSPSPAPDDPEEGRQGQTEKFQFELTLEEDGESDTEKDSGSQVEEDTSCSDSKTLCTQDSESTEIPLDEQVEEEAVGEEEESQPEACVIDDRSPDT

IC50 [1] [µM] | SMILES | IC50 (recombinant human PDE4) [µM]
0.00015 | O=[N+]([O-])c1cccc(-c2cc(Cc3ccc(F)cc3)cc3c2OCC3)c1 [Example 1, 5-[(4-fluorophenyl)methyl]-7-(3-nitrophenyl)-2,3-dihydrobenzofuran] | 
 | COc1ccc(C2CNC(=O)C2)cc1OC1CCCC1 (centres unmarked) [rolipram] | ~0.2
